One experiment deals with T1, ENaC (Homo sapiens, UniProt P37088+P51168+P51170).
T1 construct: endogenous in cells; host or cells: T84 cells, ENaC induced with 2 mM sodium butyrate for 2 days
T1 sequence (P37088 1-669): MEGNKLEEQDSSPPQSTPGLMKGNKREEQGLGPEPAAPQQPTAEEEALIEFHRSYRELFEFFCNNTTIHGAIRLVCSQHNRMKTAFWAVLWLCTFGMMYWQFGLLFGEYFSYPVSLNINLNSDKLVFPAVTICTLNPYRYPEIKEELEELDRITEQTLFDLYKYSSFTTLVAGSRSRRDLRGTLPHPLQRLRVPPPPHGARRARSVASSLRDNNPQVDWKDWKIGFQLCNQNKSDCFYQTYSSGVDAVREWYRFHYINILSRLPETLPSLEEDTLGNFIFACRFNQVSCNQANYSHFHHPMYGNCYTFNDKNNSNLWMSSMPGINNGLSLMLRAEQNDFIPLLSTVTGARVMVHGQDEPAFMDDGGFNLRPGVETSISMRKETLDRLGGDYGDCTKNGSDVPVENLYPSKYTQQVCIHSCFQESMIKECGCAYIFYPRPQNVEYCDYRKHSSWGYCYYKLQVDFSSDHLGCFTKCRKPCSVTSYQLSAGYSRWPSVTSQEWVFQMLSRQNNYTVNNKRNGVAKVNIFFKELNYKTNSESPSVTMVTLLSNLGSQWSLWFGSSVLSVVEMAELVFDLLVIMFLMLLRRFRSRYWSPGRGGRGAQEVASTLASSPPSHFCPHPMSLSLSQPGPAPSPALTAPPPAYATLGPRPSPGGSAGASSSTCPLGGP
T1 sequence (P51168 1-640): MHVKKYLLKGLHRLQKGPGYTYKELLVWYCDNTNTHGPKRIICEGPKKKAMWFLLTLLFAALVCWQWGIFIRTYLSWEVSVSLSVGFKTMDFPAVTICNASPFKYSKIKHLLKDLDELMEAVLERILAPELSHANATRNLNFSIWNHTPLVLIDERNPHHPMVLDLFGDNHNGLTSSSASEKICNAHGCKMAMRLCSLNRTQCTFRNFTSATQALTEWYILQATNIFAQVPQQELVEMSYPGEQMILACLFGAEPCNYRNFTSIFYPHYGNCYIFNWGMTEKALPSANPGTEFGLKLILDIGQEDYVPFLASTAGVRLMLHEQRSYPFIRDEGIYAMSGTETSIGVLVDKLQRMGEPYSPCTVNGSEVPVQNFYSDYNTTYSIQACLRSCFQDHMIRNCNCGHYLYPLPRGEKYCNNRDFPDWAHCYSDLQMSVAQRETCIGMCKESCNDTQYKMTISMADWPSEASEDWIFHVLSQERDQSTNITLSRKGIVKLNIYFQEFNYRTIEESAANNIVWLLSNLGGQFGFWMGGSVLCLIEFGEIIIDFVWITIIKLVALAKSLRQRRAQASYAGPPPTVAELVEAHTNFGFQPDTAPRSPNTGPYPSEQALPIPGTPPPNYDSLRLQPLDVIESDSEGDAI
T1 sequence (P51170 1-649): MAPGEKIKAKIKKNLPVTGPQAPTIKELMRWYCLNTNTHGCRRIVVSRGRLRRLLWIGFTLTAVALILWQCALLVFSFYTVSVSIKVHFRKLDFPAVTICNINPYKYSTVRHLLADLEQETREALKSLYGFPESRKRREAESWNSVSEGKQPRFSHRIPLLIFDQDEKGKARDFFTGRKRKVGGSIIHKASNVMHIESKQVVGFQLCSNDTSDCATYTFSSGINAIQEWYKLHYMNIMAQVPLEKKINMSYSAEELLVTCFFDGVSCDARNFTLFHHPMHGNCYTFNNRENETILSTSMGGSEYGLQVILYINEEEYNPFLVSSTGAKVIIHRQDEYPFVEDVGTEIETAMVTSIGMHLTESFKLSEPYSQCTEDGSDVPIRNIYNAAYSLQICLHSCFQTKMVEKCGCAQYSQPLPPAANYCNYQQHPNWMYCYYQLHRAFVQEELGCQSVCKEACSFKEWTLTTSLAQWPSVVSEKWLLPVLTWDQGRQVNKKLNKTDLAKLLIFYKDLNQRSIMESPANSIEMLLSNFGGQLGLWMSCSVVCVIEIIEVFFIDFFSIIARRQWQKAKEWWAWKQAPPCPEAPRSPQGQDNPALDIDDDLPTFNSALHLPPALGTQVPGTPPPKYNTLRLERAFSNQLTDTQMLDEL
Kind of experiment: Short circuit current in T84 cells expressing ENaC. The format is cell-based. The following applies: 100 μM. The method, then: Snapwell inserts containing ANO1, ANO2 or CFTR expressing FRT cells, ENaC expressing T-84 cells or the human primary airway epithelial cells were mounted in Ussing chambers (Physiologic Instruments, San Diego, CA). To induce transcriptional ENaC induction, the polarized T84 cells were incubated with 2 mM sodium butyrate for 2 days. To increase the functional expression of ANO1, the human airway epithelial cells were treated with IL-4 (10 ng/mL) for 2 days. For T-84 and the human primary airway epithelial cells, the apical and basolateral bath were filled with HCO3^—buffered solution containing (in mM): 120 NaCl, 5 KCl, 1 MgCl2, 1 CaCl2, 10 D-glucose, 2.5 HEPES, and 25 NaHCO3 (pH 7.4). For FRT cells, the basolateral bath was filled with the HCO3^—buffered solution and the apical bath was filled with a half-Cl^- solution. In the half-Cl^- solution 65 mM NaCl in the HCO3^—buffered solution was replaced by Na-gluconate. […] ATP was applied to the apical bath solution to induce intracellular calcium increase. […] Apical membrane currents were measured with an EVC4000 Multi-Channel V/I Clamp (World Precision Instruments, Sarasota, FL) and PowerLab 4/35 (AD Instruments, Castle Hill, Australia). Data were analyzed using Labchart Pro 7 (AD Instruments). The sampling rate was 4 Hz.
ANO1 was activated by either 10 μM Eact, an ANO1 activator, or 100 μM ATP.

A further experiment relates to ANO1. On the set-up: method as in PMID 22526416. To be noted: ref [38]; cited from earlier work.
The test system of a further experiment is ANO2. On the set-up: method as in PMID 22526416. To be noted: ref [38]; cited from earlier work.
Experiment [1] concerns VRAC. Kind of experiment: VRAC activity by YFP quenching in LN215 cells. The experiment is classed as cell-based, human. To be noted: 10 μM. The method, then: LN215 cells, a human glioma cell line, were stably transfected with YFP-F46L/H148Q/I152L, a halide sensor YFP. After the cells were incubated on 96well black plates (Corning Inc., Corning, NY) for 48 hours, each well of the 96-well plate was washed 3 times in PBS (200 μL/wash), and the wells were filled with 50 μl/well isotonic solution (in mM): 140 NaCl, 5 KCl, 20 HEPES (310 mOsm/kg; pH 7.4 with NaOH). In each well, VRAC expressed on the cells were stimulated with addition of 50 μl of hypotonic solutions (in mM): 5 KCl, 20 HEPES, 90 mannitol (120 mOsm/kg). Test compounds (1 μL) were added to each well in a dose dependent manner. After 5 min, 96-well plates were transferred to a plate reader for fluorescence assay. Each well was assayed individually for VRAC-mediated I^- influx by recording fluorescence continuously (400 ms per point) for 7.6 s. YFP fluorescence was recorded 0.4 s for baseline, then 100 μL of 140 mM I^- solution was added at 0.4 s to see the change in fluorescence. Initial iodide influx rate was determined from the initial slope of fluorescence decrease, by nonlinear regression, following infusion of iodide.

Experiment [2] has as its system VRAC. Description: Whole-cell patch clamp of hypotonicity-induced VRAC currents in LN215 cells. The experiment is classed as cell-based, human. To be noted: 10 μM. The source says: Pipettes were pulled from borosilicate glass and had resistances of 3–5 MΩ after fire polishing. […] The liquid junction potential (~2.4 mV) was not corrected. After establishing the whole-cell configuration, whole-cell capacitance and series resistance were compensated with the amplifier circuitry. […] VRAC was activated by exposing LN215 cells to a 25% hypotonic bath solution.

Experiment [3] concerns VRAC. Also noted: method as in PMID 24965069, PMID 25163766, PMID 26438191. The following applies: ref [26]–[28]; cited from earlier work.

Like-named read-outs stand apart in the source and are kept apart here.

Regarding `N=C(N)NC(=O)c1nc(Cl)c(N)nc1N` [amiloride], the “effect on ENaC channel activity” value at ENaC is “fully blocked”.
On to `O=C(O)c1cccnc1Nc1cccc(C(F)(F)F)c1` [niflumic acid], for which, in the experiment with ANO1, the “inhibition of ANO1” value is reported as “inhibited”. Also, the “inhibition of ANO2” value with ANO2 is “inhibited”.
Regarding `CCCCC1(C2CCCC2)Cc2cc(OCCCC(=O)O)c(Cl)c(Cl)c2C1=O` (centres unmarked) [DCPIB], the “block of VRAC activity” value in the experiment on VRAC [1] was “completely blocked”. The “effect on hypotonicity-induced VRAC currents” value in the experiment with VRAC [2] is listed as “almost completely blocked”.
Regarding `O=C(O)c1cc([N+](=O)[O-])ccc1NCCCc1ccccc1` [NPPB, 5-nitro-2-(3-phenylpropylamino)-benzoic acid], in the experiment on ANO1, the “inhibition of ANO1” value is “inhibited”. Also, the “inhibition of ANO2” value in the experiment on ANO2 is on record as “inhibited”. Also, the “block of VRAC activity” value with VRAC [3] is given as “potently blocked”.
